Test results as given in patent publication US11034650B2, “Compounds useful for treating a Mannheimia haemolytica or Histophilus somni infection” (Intervet Inc., priority 2016, dated 2021).
≈ marks a conversion by molar mass, not a printed value.

How the values were obtained:
Type in all cases: cell-based
[1] = tested on: Pasteurella multocida PM 10775 (080130003051, BRD field isolate); assay: MIC, broth-microdilution (CLSI VET01-A4), strain PM 10775; settings: Pasteurella multocida strain PM 10775, broth-microdilution; unit assumed
Method in brief: (§1)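 Two-fold serial dilutions of each compound were prepared, bacteria were grown in them, and plates were then inspected visually. No turbidity at the lowest concentration defined the MIC.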

[2] = tested on: Mannheimia haemolytica MH 6374 (ATCC 33396, reference strain); assay: MIC, broth-microdilution (CLSI VET01-A4), strain MH 6374; settings: Mannheimia haemolytica strain MH 6374, broth-microdilution; unit assumed
Method in brief: as §1

[3] = tested on: Pasteurella multocida PM 6391 (ATCC 43137, reference strain); assay: MIC, broth-microdilution (CLSI VET01-A4), strain PM 6391; settings: Pasteurella multocida strain PM 6391, broth-microdilution; unit assumed
Method in brief: as §1

[4] = tested on: Pasteurella multocida PM 12080 (IV102277-0093, BRD field isolate); assay: MIC, broth-microdilution (CLSI VET01-A4), strain PM 12080; settings: Pasteurella multocida strain PM 12080, broth-microdilution; unit assumed
Method in brief: as §1

[5] = tested on: Mannheimia haemolytica MH 6357 (M7/2, reference strain, cattle infection strain); assay: MIC, broth-microdilution (CLSI VET01-A4), strain MH 6357; settings: Mannheimia haemolytica strain MH 6357, broth-microdilution; unit assumed
Method in brief: as §1

[6] = tested on: Mannheimia haemolytica MH 10720 (154, BRD field isolate); assay: MIC, broth-microdilution (CLSI VET01-A4), strain MH 10720; settings: Mannheimia haemolytica strain MH 10720, broth-microdilution; unit assumed
Method in brief: as §1

[7] = tested on: Pasteurella multocida PM 6267 (P 2225 (L386), reference strain, mouse infection strain); assay: MIC, broth-microdilution (CLSI VET01-A4), strain PM 6267; settings: Pasteurella multocida strain PM 6267, broth-microdilution; unit assumed
Method in brief: as §1

[8] = tested on: Mannheimia haemolytica MH 13065 (XB0446-6003.9, BRD field isolate); assay: MIC, broth-microdilution (CLSI VET01-A4), strain MH 13065; settings: Mannheimia haemolytica strain MH 13065, broth-microdilution; unit assumed
Method in brief: as §1

[9] = tested on: Mannheimia haemolytica MH 12587 (1071, BRD field isolate, macrolide-resistance: erm+, E+); assay: MIC, broth-microdilution (CLSI VET01-A4), strain MH 12587; settings: Mannheimia haemolytica strain MH 12587, broth-microdilution; unit assumed
Method in brief: as §1

[10] = tested on: Mannheimia haemolytica MH 13093 (XB0472-6014.1, BRD field isolate); assay: MIC, broth-microdilution (CLSI VET01-A4), strain MH 13093; settings: Mannheimia haemolytica strain MH 13093, broth-microdilution; unit assumed
Method in brief: as §1

MIC PM 10775 [1] [µg/mL]	MIC PM 6391 [3] [µg/mL]	MIC PM 12080 [4] [µg/mL]	MIC PM 6267 [7] [µg/mL]	Compound	MIC MH 6374 [2] [µg/mL]	MIC MH 6357 [5] [µg/mL]	MIC MH 10720 [6] [µg/mL]	MIC MH 13065 [8] [µg/mL]	MIC MH 12587 [9] [µg/mL]	MIC MH 13093 [10] [µg/mL]
0.2 (≈ 0.407 µM)	≤ 0.1	0.2 (≈ 0.407 µM)	3.1 (≈ 6.31 µM)	CON=C(C)[C@H](NC(=O)c1ccc(C#Cc2ccc(CNCc3nccs3)cc2)cc1)C(=O)NO [Compound 395]	0.8 (≈ 1.63 µM)	0.4 (≈ 0.814 µM)	0.4 (≈ 0.814 µM)	0.8 (≈ 1.63 µM)	0.2 (≈ 0.407 µM)	0.8 (≈ 1.63 µM)
0.8 (≈ 1.63 µM)	≤ 0.1	0.4 (≈ 0.815 µM)	6.3 (≈ 12.8 µM)	CC(=O)C(NC(=O)c1ccc(C#Cc2ccc(CNCc3ccnc(Cl)c3)cc2)cc1)C(=O)NO (centres unmarked) [Compound 408]	1.6 (≈ 3.26 µM)	1.6 (≈ 3.26 µM)	1.6 (≈ 3.26 µM)	1.6 (≈ 3.26 µM)	0.4 (≈ 0.815 µM)	1.6 (≈ 3.26 µM)
≤ 0.1	1.6 (≈ 4.71 µM)	1.6 (≈ 4.71 µM)	0.8 (≈ 2.36 µM)	Nc1ccc(C#Cc2ccc(C(=O)N[C@@H](CO)C(=O)NO)cc2)cc1 [Compound 376, 4-[2-(4-aminophenyl)ethynyl]-N-[(1S)-2-(hydroxyamino)-1-(hydroxymethyl)-2-oxo-ethyl]benzamide]	3.1 (≈ 9.14 µM)	1.6 (≈ 4.71 µM)	0.8 (≈ 2.36 µM)	3.1 (≈ 9.14 µM)	6.3 (≈ 18.6 µM)	6.3 (≈ 18.6 µM)
≤ 0.1	0.4 (≈ 0.825 µM)	0.2 (≈ 0.413 µM)	0.2 (≈ 0.413 µM)	C=CCNCc1ccc(C#Cc2ccc(C(=O)N[C@H](C(=O)NO)C(C)(C)S(C)(=O)=O)cc2)cn1 [Compound 370]	1.6 (≈ 3.3 µM)	0.8 (≈ 1.65 µM)	0.8 (≈ 1.65 µM)	1.6 (≈ 3.3 µM)	3.1 (≈ 6.4 µM)	3.1 (≈ 6.4 µM)

Further lines, the compound ahead of its results:

Compound	MIC PM 10775 [1] [µg/mL]	MIC PM 6391 [3] [µg/mL]	MIC PM 12080 [4] [µg/mL]	MIC PM 6267 [7] [µg/mL]	MIC MH 6374 [2] [µg/mL]	MIC MH 6357 [5] [µg/mL]	MIC MH 10720 [6] [µg/mL]	MIC MH 13065 [8] [µg/mL]	MIC MH 12587 [9] [µg/mL]	MIC MH 13093 [10] [µg/mL]
CC(C)([C@H](NC(=O)c1ccc(C#Cc2ccc(CNCc3ccco3)nc2)cc1)C(=O)NO)S(C)(=O)=O [Compound 354]	≤ 0.1	0.4 (≈ 0.762 µM)	0.2 (≈ 0.381 µM)	0.8 (≈ 1.52 µM)	0.8 (≈ 1.52 µM)	0.4 (≈ 0.762 µM)	0.2 (≈ 0.381 µM)	1.6 (≈ 3.05 µM)	1.6 (≈ 3.05 µM)	0.8 (≈ 1.52 µM)
CC[C@H](C)[C@H](NC(=O)c1ccc(C#Cc2cccc(CNC3CC3)c2)cc1)C(=O)NO [Compound 144]	0.4 (≈ 0.953 µM)	12.5 (≈ 29.8 µM)	3.1 (≈ 7.39 µM)	3.1 (≈ 7.39 µM)	12.5 (≈ 29.8 µM)	6.3 (≈ 15 µM)	1.6 (≈ 3.81 µM)	12.5 (≈ 29.8 µM)	25 (≈ 59.6 µM)	12.5 (≈ 29.8 µM)
CC(C)([C@H](NC(=O)c1ccc(C#Cc2ccc(CNCc3ccccn3)cc2)cc1)C(=O)NO)S(C)(=O)=O [C.269]	≤ 0.1	≤ 0.1	≤ 0.1	≤ 0.1	0.4 (≈ 0.748 µM)	1.6 (≈ 2.99 µM)	≤ 0.1	1.6 (≈ 2.99 µM)	1.6 (≈ 2.99 µM)	0.8 (≈ 1.5 µM)
CC(C)(C(NC(=O)c1ccc(C#Cc2ccc(CNCc3ccc(C(F)(F)F)cc3)cc2)cc1)C(=O)NO)[N+](=O)[O-] (centres unmarked) [Compound 279]	0.4 (≈ 0.704 µM)	1.6 (≈ 2.81 µM)	1.6 (≈ 2.81 µM)	0.4 (≈ 0.704 µM)	6.3 (≈ 11.1 µM)	3.1 (≈ 5.45 µM)	1.6 (≈ 2.81 µM)	6.3 (≈ 11.1 µM)	6.3 (≈ 11.1 µM)	6.3 (≈ 11.1 µM)
CC(C)[C@H](NC(=O)c1ccc(C#Cc2ccc(CNC3CCC3)cc2)cc1)C(=O)NO [Compound 210]	≤ 0.1	0.2 (≈ 0.477 µM)	≤ 0.1	≤ 0.1	3.1 (≈ 7.39 µM)	1.6 (≈ 3.81 µM)	0.8 (≈ 1.91 µM)	1.6 (≈ 3.81 µM)	6.3 (≈ 15 µM)	3.1 (≈ 7.39 µM)
CSC(C)(C)[C@H](NC(=O)c1ccc(C#Cc2ccc(CNC3CC3)cc2)cc1)C(=O)NO [Compound 235]	≤ 0.1	≤ 0.1	≤ 0.1	≤ 0.1	0.8 (≈ 1.77 µM)	0.4 (≈ 0.886 µM)	≤ 0.1	0.4 (≈ 0.886 µM)	1.6 (≈ 3.54 µM)	0.4 (≈ 0.886 µM)
CC(C)(O)[C@H](NC(=O)c1ccc(C#Cc2ccc(CNCc3cccnc3)s2)cc1)C(=O)NO [Compound 296]	≤ 0.1	≤ 0.1	≤ 0.1	0.8 (≈ 1.67 µM)	0.2 (≈ 0.418 µM)	≤ 0.1	≤ 0.1	≤ 0.1	0.4 (≈ 0.836 µM)	0.4 (≈ 0.836 µM)
